Data set [1] is described as follows: acute toxicity (LD 50) in mice (i.v.). As to conditions: mouse, in vivo, iv.
A further data set has as its system Pseudomonas aeruginosa. Kind of data set: antibacterial activity, statement in words. Format: cell-based. As to conditions: from Table 1. On the procedure: (§1) *Determined by the standard method of the Japan Society of Chemoterapy:
(§2) (MuellerHinton Broth medium), 10^6 /ml of bacteria were seeded and
(§3) incubated at 37° C. for 18 hours.

The subject of a further data set is Ps. aeruginosa, 32233. Kind of data set: MIC, standard method of the Japan Society of Chemotherapy (Mueller-Hinton Broth medium). As to conditions: Pseudomonas aeruginosa, 10^6 /ml of bacteria, 37° C., 18 hours. It counts as cell-based. As to the method: as §1, §2, §3
Data set [2] concerns Str. faecalis, ATCC-19433. Described as above. It counts as cell-based. As to conditions: Enterococcus faecalis, ATCC19433, 10^6 /ml of bacteria, 37° C., 18 hours. As to the method:
as §1, §2, §3

The subject of another data set is Ps. aeruginosa, 32122. Described as above. As to conditions: Pseudomonas aeruginosa, 10^6 /ml of bacteria, 37° C., 18 hours. It counts as cell-based. As to the method:
as §1, §2, §3

A further data set has as its system Ent. cloacae, 03400. The data set is described as above. It counts as cell-based. Particulars: Enterobacter cloacae, 10^6 /ml of bacteria, 37° C., 18 hours. As to the method:
as §1, §2, §3

A further data set has as its system Pr. vulgaris, 08602. The data set is described as above. It counts as cell-based. Particulars: Proteus vulgaris, 10^6 /ml of bacteria, 37° C., 18 hours. As to the method: as §1, §2, §3
The next data set concerns K. pneumoniae, type 1. Described as above. Particulars: Klebsiella pneumoniae, TYPE1, 10^6 /ml of bacteria, 37° C., 18 hours. Format: cell-based. As to the method: as §1, §2, §3
A further data set has as its system Ps. aeruginosa, 32121. The description is as above. Format: cell-based. As to conditions: Pseudomonas aeruginosa, 10^6 /ml of bacteria, 37° C., 18 hours. As to the method: as §1, §2, §3
The subject of the next data set is S. aureus, 209 P. The data set is described as above. It counts as cell-based. Particulars: Staphylococcus aureus, 10^6 /ml of bacteria, 37° C., 18 hours. On the procedure:
as §1, §2, §3

In the next data set the test system is Ps. aeruginosa, 32234. The data set is described as above. Format: cell-based. Particulars: Pseudomonas aeruginosa, 10^6 /ml of bacteria, 37° C., 18 hours. On the procedure: as §1, §2, §3
In a further data set the test system is Pr. mirabilis, IFO-3849. The data set is described as above. It counts as cell-based. As to conditions: Proteus mirabilis, IFO3849, 10^6 /ml of bacteria, 37° C., 18 hours. On the procedure:
as §1, §2, §3

The test system of the next data set is Ps. aeruginosa, 32104. The data set is described as above. It counts as cell-based. As to conditions: Pseudomonas aeruginosa, 10^6 /ml of bacteria, 37° C., 18 hours. On the procedure: as §1, §2, §3
A further data set relates to Str. pyogenes, G-36. Described as above. It counts as cell-based. As to conditions: Streptococcus pyogenes, G36, 10^6 /ml of bacteria, 37° C., 18 hours. On the procedure: as §1, §2, §3
For another data set, the system named is E. coli, NIHJ. Described as above. It counts as cell-based. Particulars: Escherichia coli, 10^6 /ml of bacteria, 37° C., 18 hours. On the procedure:
as §1, §2, §3

Another data set relates to B. subtilis, ATCC-6633. The description is as above. Format: cell-based. Particulars: Bacillus subtilis, ATCC6633, 10^6 /ml of bacteria, 37° C., 18 hours. As to the method: as §1, §2, §3
The next data set has as its system Ser. marcescens, 10104. Described as above. Format: cell-based. Particulars: Serratia marcescens, 10^6 /ml of bacteria, 37° C., 18 hours. On the procedure:
as §1, §2, §3

The next data set has as its system S. epidermidis, 56500. Described as above. It counts as cell-based. As to conditions: Staphylococcus epidermidis, 10^6 /ml of bacteria, 37° C., 18 hours. As to the method: as §1, §2, §3
A further data set relates to Sh. flexneri, 2a, 5503. The data set is described as above. Format: cell-based. As to conditions: Shigella flexneri, 10^6 /ml of bacteria, 37° C., 18 hours. As to the method:
as §1, §2, §3

The test system of the next data set is Gram-positive bacteria. The experiment in a line: antibacterial activity, statement in words. It counts as cell-based. As to conditions: from Table 1. On the procedure:
as §1, §2, §3

Each structure is given as a SMILES string. In brackets after ≈: the same amount, converted by molar mass. Structures can show the parent of a compound that is named as a salt.

The LD50 is the dose at which mortality reaches 50%. Higher therefore signals a less toxic substance. The term MIC denotes the lowest concentration found to suppress growth.

The compound `C=C1COc2c(N3CCC(O)C3)c(F)cc3c(=O)c(C(=O)O)cn1c23` (centres unmarked) [Ia, sodium salt] came in with an LD50 in data set [1] of 333 mg/kg.
`C=C1COc2c(N3CCC(N)C3)c(F)cc3c(=O)c(C(=O)O)cn1c23` (centres unmarked) [Ib, methanesulfonic acid addition salt] yielded an LD50 in [1] greater than 320 mg/kg.
`C=C1COc2c(N3CCC(N)C3)c(F)cc3c(=O)c(C(=O)O)cn1c23` (centres unmarked) [Ib, 10-(3-amino-1-pyrrolidinyl)-9-fluoro-3-methylene-7-oxo-2,3-dihydro-7H-pyrido(1,2,3-de)-1,4-benzoxazine-6-carboxylic acid]: in the data set on Pseudomonas aeruginosa, the “antibacterial activity against Pseudomonas aeruginosa” value is “very strong antibacterial activity”. The MIC in the data set with Ps. aeruginosa, 32233 turned out to be 0.19 µg/mL (≈ 0.55 µM); in data set [2], 0.78 µg/mL (≈ 2.26 µM); against Ps. aeruginosa, 32122 it was 0.1 µg/mL (≈ 0.29 µM); against Ent. cloacae, 03400 it was 0.025 µg/mL (≈ 0.0724 µM); against Pr. vulgaris, 08602 it was 0.025 µg/mL (≈ 0.0724 µM); against K. pneumoniae, type 1 it was 0.05 µg/mL (≈ 0.145 µM). The MIC amounted to 0.05 µg/mL (≈ 0.145 µM) in the data set on Ps. aeruginosa, 32121; 0.1 µg/mL (≈ 0.29 µM) with S. aureus, 209 P; 0.1 µg/mL (≈ 0.29 µM) against Ps. aeruginosa, 32234; 0.025 µg/mL (≈ 0.0724 µM) in the data set with Pr. mirabilis, IFO-3849; 0.1 µg/mL (≈ 0.29 µM) with Ps. aeruginosa, 32104; 0.78 µg/mL (≈ 2.26 µM) with Str. pyogenes, G-36. Besides, the minimum inhibitory concentration (MIC) with E. coli, NIHJ was found to be 0.025 µg/mL (≈ 0.0724 µM); against B. subtilis, ATCC-6633, 0.05 µg/mL (≈ 0.145 µM); with Ser. marcescens, 10104, 0.05 µg/mL (≈ 0.145 µM); in the data set on S. epidermidis, 56500 it was 0.39 µg/mL (≈ 1.13 µM); in the data set on Sh. flexneri, 2a, 5503, 0.0125 µg/mL (≈ 0.0362 µM).
Regarding `C=C1COc2c(N3CCC(O)C3)c(F)cc3c(=O)c(C(=O)O)cn1c23` (centres unmarked) [Ia, 9-fluoro-10-(3-hydroxy-1-pyrrolidnyl)-3-methylene-7-oxo-2,3-dihydro-7H-pyrido(1,2,3-de)-1,4-benzoxazine-6-carboxylic acid], the “antibacterial activity against Gram-positive bacteria” value with Gram-positive bacteria was “very strong antibacterial activity”. The MIC in the data set on Ps. aeruginosa, 32233 turned out to be 0.78 µg/mL (≈ 2.25 µM); in data set [2] it was 0.39 µg/mL (≈ 1.13 µM); in the data set with Ps. aeruginosa, 32122, 0.78 µg/mL (≈ 2.25 µM); against Ent. cloacae, 03400 it was 0.05 µg/mL (≈ 0.144 µM); in the data set with Pr. vulgaris, 08602, 0.025 µg/mL (≈ 0.0722 µM); against K. pneumoniae, type 1, 0.19 µg/mL (≈ 0.549 µM). Further, the MIC with Ps. aeruginosa, 32121 is 0.19 µg/mL (≈ 0.549 µM); against S. aureus, 209 P, 0.05 µg/mL (≈ 0.144 µM); with Ps. aeruginosa, 32234, 0.78 µg/mL (≈ 2.25 µM); against Pr. mirabilis, IFO-3849, 0.05 µg/mL (≈ 0.144 µM); in the data set on Ps. aeruginosa, 32104, 0.78 µg/mL (≈ 2.25 µM); in the data set with Str. pyogenes, G-36, 0.78 µg/mL (≈ 2.25 µM). In addition, the minimum inhibitory concentration (MIC) against E. coli, NIHJ is 0.0125 µg/mL (≈ 0.0361 µM); with B. subtilis, ATCC-6633 it was no more than 0.0063 µg/mL; against Ser. marcescens, 10104, 0.1 µg/mL (≈ 0.289 µM); with S. epidermidis, 56500, 0.19 µg/mL (≈ 0.549 µM); against Sh. flexneri, 2a, 5503, 0.025 µg/mL (≈ 0.0722 µM).

Source of the values: patent publication US4539401A, “Pyridobenzoxazine derivatives useful as antibacterial agents” (Daiichi Seiyaku Co., Ltd., priority 1982, dated 1985).
